Data taken from patent publication US6649636B1, “Heteroaryl phenyl pyrazole compounds as anti-inflammatory/analgesic agents” (Pfizer Inc., priority 1999, dated 2003).

Compared with `CS(=O)(=O)c1ccc(-n2nc(C(F)(F)F)cc2-c2ccc(-c3cscn3)c(Cl)c2)nc1` [Example 19], `CS(=O)(=O)c1ccc(-n2nc(C(F)(F)F)cc2-c2ccc(-c3cscn3)cc2Cl)nc1` [Example 22] is lower in melting point: 175.6 °C for the first, 166.1 °C for the second.

First: CS(=O)(=O)c1ccc(-n2nc(C(F)(F)F)cc2-c2ccc(-c3ccco3)cc2)nn1 [Example 36]
Second: CS(=O)(=O)c1ccc(-n2nc(C(F)(F)F)cc2-c2ccc(-c3ccco3)cc2)cn1 [Example 1, 5-[4-(2-Furyl)phenyl]-1-[2-(methylsulfonylpyridin)-5-yl]-3-trifluoromethyl-1H-pyrazole]
The melting point of the first is higher: 209 to 212 °C for the first, 106 to 109 °C for the second.

First: CS(=O)(=O)c1cnc(-n2nc(C(F)(F)F)cc2-c2ccc(-c3ccco3)cc2)s1 [Example 37]
Second: Cc1cc(-c2cc(C(F)(F)F)nn2-c2ccc(S(C)(=O)=O)cn2)ccc1-c1ccco1 [Example 15]
The melting point of the first is higher: 188 to 190 °C for the first, 160 to 161.1 °C for the second.

First: CCc1cc(-c2cc(C(F)(F)F)nn2-c2ccc(S(C)(=O)=O)cn2)ccc1-c1cscn1 [Example 23]
Second: Cc1cc(-c2cc(C(F)(F)F)nn2-c2ccc(S(C)(=O)=O)cn2)ccc1-c1cscn1 [Example 2]
The melting point of the first is lower: 165.8 °C for the first, 179 to 182 °C for the second.

Compared with `Cc1cc(-c2cc(C(F)F)nn2-c2ccc(S(C)(=O)=O)cn2)ccc1-c1cscn1` [Example 27], `COC(=O)c1cc(-c2ccc(-c3cscn3)c(C)c2)n(-c2ccc(S(C)(=O)=O)cn2)n1` [Example 12] is lower in melting point: 156.9 °C for the first, 144 to 145 °C for the second.

First: Cc1cc(-c2cc(C(F)(F)F)nn2-c2ccc(S(C)(=O)=O)cn2)ccc1-c1ncco1 [Example 28]
Second: Cc1cc(-c2cc(C(F)(F)F)nn2-c2ccc(S(C)(=O)=O)cn2)ccc1-c1cocn1 [Example 9]
The melting point of the first is higher: 174.5 to 176 °C for the first, 154 to 155 °C for the second.

Compared with `Cc1cc(-c2cc(C(F)(F)F)nn2-c2ccc(S(C)(=O)=O)c(F)n2)ccc1-c1cscn1` [Example 25], `CS(=O)(=O)c1ccc(-n2nc(C(F)(F)F)cc2-c2ccc(-c3cscn3)c(F)c2)nc1` [Example 24] is higher in melting point: 158.9 °C for the first, 187.5 °C for the second.

Compared with `CS(=O)(=O)c1ccc(-n2nc(C(F)(F)F)cc2-c2ccc(-c3cscn3)cc2)nc1` [Example 18], `CS(=O)(=O)c1ccc(-n2nc(C(F)(F)F)cc2-c2ccc(-c3cscn3)cc2F)nc1` [Example 21] is lower in melting point: 210 to 211 °C for the first, 194.3 °C for the second.

First: Cc1cc(-c2cc(C(F)(F)F)nn2-c2ccc(S(C)(=O)=O)cn2)ccc1-c1cnn[nH]1 [Example 30]
Second: Cc1cc(-c2cc(C(F)(F)F)nn2-c2ccc(S(C)(=O)=O)cn2)ccc1-c1nn[nH]n1 [Example 29]
The melting point of the first is lower: 189 °C for the first, 241 to 242 °C for the second.

First: Cc1cc(-c2c(Cl)c(C(F)(F)F)nn2-c2ccc(S(C)(=O)=O)nc2)ccc1-c1cscn1 [Example 5]
Second: Cc1cc(-c2cc(C(F)(F)C(F)(F)F)nn2-c2ccc(S(C)(=O)=O)nc2)ccc1-c1cscn1 [Example 4]
The melting point of the first is lower: 81 to 83 °C for the first, 120.8 °C for the second.

Compared with `Cc1cc(-c2cc(C(F)(F)F)nn2-c2ccc(S(C)(=O)=O)cn2)ccc1-c1ccsc1` [Example 16], `COc1cc(-c2cc(C(F)(F)F)nn2-c2ccc(S(C)(=O)=O)cn2)ccc1-c1cscn1` [Example 20] is higher in melting point: 165 to 166 °C for the first, 170 to 175 °C for the second.

First: Cc1ccc(-c2ccc(-c3cc(C(F)(F)F)nn3-c3ccc(S(C)(=O)=O)nc3)cc2)s1 [Example 35]
Second: CS(=O)(=O)c1ccc(-n2nc(C(F)(F)F)cc2-c2ccc(-c3ccc(Cl)s3)cc2)cn1 [Example 34]
The melting point of the first is lower: 123 to 124 °C for the first, 155 to 156 °C for the second.

Compared with `Cc1cc(-c2cc(C(F)(F)F)nn2-c2ccc(S(C)(=O)=O)cn2)c(C)cc1-c1cscn1` [Example 10], `CCc1c(C(F)(F)F)nn(-c2ccc(S(C)(=O)=O)cn2)c1-c1ccc(-c2cscn2)c(C)c1` [Example 13] is lower in melting point: 214 to 215 °C for the first, 163 to 164 °C for the second.

First: Cc1cc(-c2c(C#N)cnn2-c2ccc(S(C)(=O)=O)cn2)ccc1-c1cscn1 [Example 11]
Second: CS(=O)(=O)c1ccc(-n2nc(C(F)(F)F)cc2-c2ccc(-c3cscn3)c(Cl)c2)cn1 [Example 17]
The melting point of the first is higher: 223 to 224 °C for the first, 95 to 100 °C for the second.

First: CS(=O)(=O)c1ccc(-n2nc(C(F)(F)F)c(F)c2-c2ccc(-c3cscn3)cc2)cn1 [Example 7]
Second: Cc1nc(-c2ccc(-c3cc(C(F)(F)F)nn3-c3ccc(S(C)(=O)=O)nc3)cc2)cs1 [Example 32]
The melting point of the first is lower: 170.5 to 171 °C for the first, 176.9 °C for the second.
